Reference: US9719982B2, “Devices comprising muscle thin films and uses thereof in high throughput assays for determining contractile function” (President and Fellows of Harvard College, priority 2009, dated 2017)
Positions of bridges follow the written chain, without caps; N, C: chain ends. No end group written: not given here.

Assays:
[1] = tested on: Human umbilical artery vascular smooth muscle; test: Vascular muscular thin film (vMTF) contractility assay, films adhered to PTFE coated posts; format: cell-based
Experimental: Human umbilical artery vascular smooth muscle was seeded on thin films at 300 cells/mm^2 in complete M199 medium (M199 supplemented with 10% fetal bovine serum (FBS), penicillin, streptomycin, L-glutamine, glucose and vitamin B12). The tissue was cultured in complete M199 for 48 hours, with a single media change at 24 hours. After 48 hours, the cells were serum starved for an additional 48 hours (M199 supplemented with penicillin, streptomycin, L-glutamine, glucose and vitamin B12, but no FBS).
Muscle thin films were transferred to fresh Tyrode's solution in the testing dish (FIG. 1), which is maintained at 37° C. by a peltier heating system. Films were adhered to Teflon coated posts (FIG. 3) by moving them into close contact using tweezers. The films were imaged using a stereomicroscope outfitted with fluorescent imaging capability. Both brightfield and fluorescent images were captured every thirty seconds. In the experiment shown in FIG. 4, four films were treated with 50 nM endothelin-1 followed by 100 μM HA-1077 (fasudil).
Quantification and analysis of thin film motion was performed using ImageJ (NIH) and MATLAB software. Thresholded fluorescent images (FIG. 4 B) were fit to circles whose radii of curvature could be measured (FIG. 4C). Using elasticity theory, the contraction stress necessary to induce the measured changes in curvature were calculated (FIG. 4D).
Human umbilical artery VSMCs were engineered as anisotropic monolayers aligned parallel to the long axis of the MTF. The vMTFs were adhered to PTFE coated posts via hydrophobic interaction with the PDMS. This arrangement allowed multiple vMTFs to be viewed concurrently. Here, eight vMTFs were tested using this assay. The fluorosphere doped PDMS could be viewed using fluorescent stereomicroscopy. In this arrangement, the films are easily approximated as circular arcs.
The vMTFs were treated with the endothelium-produced vasoconstrictor endothelin-1 followed by the rho-kinase inhibitor HA-1077, in order to calculate all of the relevant stress states of arterial muscle. […] This value represents the resting tension of the tissue. […] The HA-1077 dosage is sufficient to inhibit all myosin light chain phosphorylation, so this value represents the residual stress, or the stress generated by the cytoskeletal elements not involved in the contractile apparatus, but which remains after all other loads are removed.

[2] = tested on: vascular smooth muscle cells; test: Horizontal muscular thin film (hMTF) contractility assay with vascular smooth muscle cells; format: cell-based
Experimental: FIG. 12 contrasts the use of fluorescent microscopy and the use of brightfield stereo microscopy of vascular smooth muscle (VSM) horizontal MTFs during an assay of the invention as described in Example 5. The top row depicts fluorescent microscopy photographs of VSM horizontal MTFs comprising fluorescent beads embedded in the PDMS film. […] (A) Photographs taken 5 minutes after the start of the experiment, the films are slightly bent up from the glass due to the initial contraction of VSM. (B) Photographs taken 20 minutes after addition of the vasoconstrictor (Endothilin-1), which causes the VSM to contract and the films to bend up from the glass. […] Actuation and observation of multiple MTFs was carried out in a physiologic solution (e.g., normal Tyrodes solution). The horizontal […]) fabricated with vascular smooth muscle cells in the presence of fluorescent beads were treated with the endothelium-produced vasoconstrictor endothelin-1 (ET-1) followed by the rho-kinase inhibitor HA-1077. […] Quantification and analysis of thin film motion was performed using ImageJ (NIH) and MATLAB software. From the thresholded fluorescent images the length of the projection of the film on the horizontal plane was tracked throughout the contraction and the radius of curvature calculated. Using elasticity theory, the contraction stress necessary to induce the measured changes in curvature were calculated.

O=S(=O)(c1cccc2cnccc12)N1CCCNCC1 [HA-1077, fasudil]
change in radius of curvature of vMTFs ([1]; 100 μM HA-1077 following ET-1): rapid increase in radius of curvature | stress after inhibition of contraction (residual stress) ([1]; treatment with 100 μM HA-1077 following 50 nM ET-1): 3.1±0.8 kPa | change in radius of curvature of hMTFs ([2]; 100 mM HA-1077 following ET-1): rapid increase in radius of curvature | effect on VSM horizontal MTFs (FIG. 12C) ([2]; 30 minutes after addition of rho-kinase inhibitor, films lie flat on the glass): completely relax

endothelin-1 (CSCSSLMDKECVYFCHLDIIW; disulfide 1-15, 3-11; ends not checked; UniProt P05305 53-73, looked up) [ET-1, endothelium-produced vasoconstrictor]
change in radius of curvature of vMTFs ([1]; 50 nM ET-1): decrease in their radii of curvature | increase in cell generated stress ([1]; vMTFs stimulated with 50 nM ET-1 at time 0, basal stress 17.1±1.7 kPa): 5.06±0.75 kPa | change in radius of curvature of hMTFs ([2]; 50 nM ET-1 at time 0): decrease in their radii of curvature | effect on VSM horizontal MTFs (FIG. 12B) ([2]; 20 minutes after addition of the vasoconstrictor, films bend up from the glass): contract
